{"source": "patent US6218546A", "about": "“Reagent for the detection and isolation of carbohydrates or glycan receptors” (Roche Diagnostics GmbH, priority 1995, dated 2001)", "key": {"[1]": {"experiment": "Stability of marker and saccharide conjugates (HPLC analysis)", "assay_type": "physicochemical", "settings": "after one week in MeOH at 25° C."}, "[2]": {"molecular_target": "T1, digoxigenin-labelled MAA lectin (Maackia amurensis, UniProt P0DKL3)", "T1 sequence (P0DKL3 30-278 limits assumed)": "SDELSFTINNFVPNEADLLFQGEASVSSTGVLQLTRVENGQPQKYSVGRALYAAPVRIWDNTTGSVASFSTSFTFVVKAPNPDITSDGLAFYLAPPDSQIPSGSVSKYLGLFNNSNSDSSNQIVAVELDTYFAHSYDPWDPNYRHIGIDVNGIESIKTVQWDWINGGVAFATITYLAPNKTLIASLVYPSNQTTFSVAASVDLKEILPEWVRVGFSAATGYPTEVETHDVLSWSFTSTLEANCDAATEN", "experiment": "Detection of immobilized sugar derivative with digoxigenin-labelled MAA lectin on streptavidin microtitre plate", "assay_type": "binding", "settings": "0.5-20 pmol/well, read at 405 nm", "protocol": "Derivatized N-acetyl-neuraminosyl-2,3-D-lactose in TBS is incubated for 4 h at room temperature on a microtitre plate coated with streptavidin as a model substance to test the standard conditions. After immobilization of the sugar derivative (0.5-20 pmol/well in the microtitre plate; dissolved in TBS) the wells are washed five times with 0.25 ml TBS. In order to bind the digoxigenin-labelled MAA lectin (specific for N-acetyl-neuraminosyl-α(2-3)Gal residues) 1-10 μg of the lectin is dissolved in 1 ml TBSM (TBSM=TBS containing 1 mM MgCl2, 1 mM MnCl2 and 1 mM CaCl2) containing 0.5% blocking reagent (Boehringer Mannheim) and subsequently 0.2 ml of the lectin solution/well is incubated for 1 hour at room temperature while shaking gently. After the lectin has bound the wells are washed five times with 0.25 ml buffer (TBST=TBS containing 0.1% Tween-20®). […] The colour development is read at 405 nm and RT after an incubation period of ca. 20 to 30 min. […]\nFor the detection of N-acetyl-neuraminosyl-2,3-D-lactose the wells are washed five times with 0.25 ml TBS after immobilization of the sugar derivative (0.5-20 pmol/well in the microtitre plate; dissolved in TBS). […] The colour development is read at 405 nm and RT after an incubation period of ca. 20 to 30 min. […]"}, "[3]": {"molecular_target": "T1, digoxigenin-labelled MAA lectin", "experiment": "Inhibition of digoxigenin-labelled MAA lectin binding to immobilized fetuin sugar derivatives on streptavidin microtitre plate", "settings": "fetuin sugar derivatives (10 pmol) on the MTP"}, "[4]": {"molecular_target": "digoxigenin-labelled SNA lectin (Sambucus nigra, UniProt Q41358)", "sequence (Q41358 309-570 limits assumed)": "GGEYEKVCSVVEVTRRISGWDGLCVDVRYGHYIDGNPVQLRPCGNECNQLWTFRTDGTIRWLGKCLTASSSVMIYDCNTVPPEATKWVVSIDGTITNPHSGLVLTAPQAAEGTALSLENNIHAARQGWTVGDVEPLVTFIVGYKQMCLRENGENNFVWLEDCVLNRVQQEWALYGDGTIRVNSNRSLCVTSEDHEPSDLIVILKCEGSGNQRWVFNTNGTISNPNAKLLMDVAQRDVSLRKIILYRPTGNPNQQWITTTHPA", "sequence (Q41358 29-292 partner limits assumed)": "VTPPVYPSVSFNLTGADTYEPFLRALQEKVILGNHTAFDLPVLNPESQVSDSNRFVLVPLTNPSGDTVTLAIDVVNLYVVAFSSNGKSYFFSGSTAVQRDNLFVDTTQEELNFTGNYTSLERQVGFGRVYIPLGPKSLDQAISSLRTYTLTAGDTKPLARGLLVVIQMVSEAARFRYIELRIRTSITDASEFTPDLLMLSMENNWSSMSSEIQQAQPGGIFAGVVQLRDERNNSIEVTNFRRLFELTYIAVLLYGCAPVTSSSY", "assay_type": "binding", "settings": "saccharide added to wells containing SNA as the lectin; fetuin sugar derivatives (10 pmol)"}}}
{"smiles": "NNC(=O)NCCNC(=O)c1ccccc1N=Nc1ccc(O)cc1", "note": "[marker 4, 2-[2'-(4\"-hydroxybenzeneazo)-benzoic acid amido]-ethylsemicarbazide]", "values": [{"measurement": "decomposition of the marker", "setting": "[1]", "value": "no decomposition"}]}
{"smiles": "CC(=O)NC1C(O)CC(OC2C(O)C(CO)OC(OC3C(CO)OC(NNC(=O)NCCNC(=O)c4ccccc4N=Nc4ccc(O)cc4)C(O)C3O)C2O)(C(=O)O)OC1C(O)C(O)CO", "note": "(stereo not drawn)", "values": [{"measurement": "detection limit", "setting": "[2]; conjugate with BNAH (Example 6)", "value": 0.5, "unit": "pmol"}, {"measurement": "detection limit", "setting": "[2]; conjugate with marker 4 (Example 4)", "value": 0.5, "unit": "pmol"}]}
{"smiles": "CC(=O)NC1C(O)CC(OC2C(O)C(CO)OC(OC3C(CO)OC(O)C(O)C3O)C2O)(C(=O)O)OC1C(O)C(O)CO", "note": "[N-acetyl-neuraminosyl-2,3-D-lactose]", "values": [{"measurement": "signal strength, % of the value without inhibition", "setting": "[3]; 200 pmol added", "value": "about 50%"}, {"measurement": "signal strength, % of the value without inhibition", "setting": "[3]; 500 pmol added", "value": "about 15%"}, {"measurement": "inhibition of lectin signal", "setting": "[4]", "value": "no inhibition"}]}
